Calls of active or inactive are those of the source.
Assays:
[1] = target: T1, Leucine aminopeptidase (Plasmodium falciparum 3D7, UniProt Q8IL11); test: P. falciparum M17LAP inhibitors, primary screen, biochemical, fluorogenic H-Leu-NHMec substrate, 1536-well (AID 1619); format: functional
T1 sequence (Q8IL11 whole entry): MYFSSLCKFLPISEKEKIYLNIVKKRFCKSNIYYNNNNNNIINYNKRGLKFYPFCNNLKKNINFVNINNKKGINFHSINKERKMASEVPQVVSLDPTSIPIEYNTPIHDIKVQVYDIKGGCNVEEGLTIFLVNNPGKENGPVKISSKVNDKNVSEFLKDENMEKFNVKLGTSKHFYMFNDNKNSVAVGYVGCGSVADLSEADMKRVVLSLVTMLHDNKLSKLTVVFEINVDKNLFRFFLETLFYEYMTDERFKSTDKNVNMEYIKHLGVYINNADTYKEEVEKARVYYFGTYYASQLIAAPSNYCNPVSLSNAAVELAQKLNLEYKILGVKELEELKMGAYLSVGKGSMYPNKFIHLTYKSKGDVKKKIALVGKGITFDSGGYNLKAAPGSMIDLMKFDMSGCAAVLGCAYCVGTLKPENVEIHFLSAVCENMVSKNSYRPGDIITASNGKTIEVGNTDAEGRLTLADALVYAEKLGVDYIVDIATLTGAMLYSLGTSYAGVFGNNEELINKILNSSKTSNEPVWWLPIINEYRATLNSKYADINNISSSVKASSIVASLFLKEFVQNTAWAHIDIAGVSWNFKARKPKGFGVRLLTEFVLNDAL

[2] = target: Aspartyl aminopeptidase (Plasmodium falciparum 3D7, UniProt Q8I2J3); test: Counterscreen for inhibitors of M1 and M17 aminopeptidases: QFRET-based biochemical high throughput dose response assay for inhibitors of the Plasmodium falciparum M18 Aspartyl Aminopeptidase (PFM18AAP). [Related PubChem assays: 1619 (Screening assay (M17LAP inhibitors).), 1445 (Screening assay (M1AAP inhibitors).)]
Aspartyl aminopeptidase, sequence (Q8I2J3 whole entry): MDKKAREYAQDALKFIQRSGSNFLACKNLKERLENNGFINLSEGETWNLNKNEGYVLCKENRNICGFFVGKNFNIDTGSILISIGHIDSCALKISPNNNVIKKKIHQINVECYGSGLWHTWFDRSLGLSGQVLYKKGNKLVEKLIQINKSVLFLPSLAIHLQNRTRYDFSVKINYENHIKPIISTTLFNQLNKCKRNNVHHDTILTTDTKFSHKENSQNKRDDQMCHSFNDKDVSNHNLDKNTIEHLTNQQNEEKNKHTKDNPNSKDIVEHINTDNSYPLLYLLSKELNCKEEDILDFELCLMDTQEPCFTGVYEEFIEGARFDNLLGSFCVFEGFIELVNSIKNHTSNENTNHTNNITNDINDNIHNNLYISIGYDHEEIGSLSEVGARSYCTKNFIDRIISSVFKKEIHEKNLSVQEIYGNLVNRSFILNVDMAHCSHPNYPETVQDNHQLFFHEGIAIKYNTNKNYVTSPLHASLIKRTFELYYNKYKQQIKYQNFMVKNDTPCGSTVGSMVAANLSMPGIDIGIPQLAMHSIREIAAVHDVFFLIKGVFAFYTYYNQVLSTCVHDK

[3] = target: Procathepsin L (Homo sapiens, UniProt P07711); test: CTSL1 protease inhibition – biochemical, QFRET, 1536-well, counter-screen for M1/M17 aminopeptidase inhibitor project, dose response (AID 2214)
Procathepsin L, sequence (P07711 whole entry): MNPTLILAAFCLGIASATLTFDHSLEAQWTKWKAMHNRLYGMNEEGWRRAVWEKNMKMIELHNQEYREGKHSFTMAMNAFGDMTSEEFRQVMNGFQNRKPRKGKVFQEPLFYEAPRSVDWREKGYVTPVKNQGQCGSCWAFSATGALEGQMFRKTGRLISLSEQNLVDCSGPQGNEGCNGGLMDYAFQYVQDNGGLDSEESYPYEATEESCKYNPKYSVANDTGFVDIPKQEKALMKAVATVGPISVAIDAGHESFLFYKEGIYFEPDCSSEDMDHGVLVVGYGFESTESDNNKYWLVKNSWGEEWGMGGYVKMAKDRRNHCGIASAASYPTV

[4] = target: T2, Replicative DNA helicase DnaB (Mycobacterium tuberculosis, UniProt P9WMR3); test: DnaB intein splicing inhibitors, dose response, biochemical, cell-free fluorescence (AID 449749); format: functional
T2 sequence (P9WMR3 whole entry): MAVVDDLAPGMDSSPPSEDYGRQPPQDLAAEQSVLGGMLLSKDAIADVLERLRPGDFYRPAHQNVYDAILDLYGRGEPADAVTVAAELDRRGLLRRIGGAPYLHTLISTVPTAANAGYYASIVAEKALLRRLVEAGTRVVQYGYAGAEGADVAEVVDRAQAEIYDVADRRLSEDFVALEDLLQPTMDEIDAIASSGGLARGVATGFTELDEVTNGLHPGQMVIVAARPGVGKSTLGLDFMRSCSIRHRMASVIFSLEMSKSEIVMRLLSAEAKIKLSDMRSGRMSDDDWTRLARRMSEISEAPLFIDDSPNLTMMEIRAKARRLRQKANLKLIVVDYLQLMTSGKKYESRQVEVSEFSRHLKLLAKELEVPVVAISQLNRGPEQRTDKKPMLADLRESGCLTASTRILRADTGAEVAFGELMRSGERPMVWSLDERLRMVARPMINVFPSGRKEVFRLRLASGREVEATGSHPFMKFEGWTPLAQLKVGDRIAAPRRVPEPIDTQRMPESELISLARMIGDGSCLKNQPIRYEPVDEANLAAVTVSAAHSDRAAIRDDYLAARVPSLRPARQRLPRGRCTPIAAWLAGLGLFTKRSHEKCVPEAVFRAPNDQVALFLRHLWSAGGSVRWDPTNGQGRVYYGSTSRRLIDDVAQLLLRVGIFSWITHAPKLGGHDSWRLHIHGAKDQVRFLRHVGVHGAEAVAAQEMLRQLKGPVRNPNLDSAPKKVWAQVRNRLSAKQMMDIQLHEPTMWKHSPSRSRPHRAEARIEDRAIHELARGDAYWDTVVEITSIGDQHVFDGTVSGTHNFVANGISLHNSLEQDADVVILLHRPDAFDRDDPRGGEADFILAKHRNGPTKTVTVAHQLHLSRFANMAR

[5] = target: T3, Protein RecA (Mycobacterium tuberculosis, UniProt P9WHJ3); test: Fluorescence Cell-Free Homogeneous Dose Retest to Identify Inhibitors of RecA-Intein Splicing Activity. [Related pubchem assays (depositor defined):AID2097, AID2223, AID489010, AID492950]; format: functional
T3 sequence (P9WHJ3 whole entry): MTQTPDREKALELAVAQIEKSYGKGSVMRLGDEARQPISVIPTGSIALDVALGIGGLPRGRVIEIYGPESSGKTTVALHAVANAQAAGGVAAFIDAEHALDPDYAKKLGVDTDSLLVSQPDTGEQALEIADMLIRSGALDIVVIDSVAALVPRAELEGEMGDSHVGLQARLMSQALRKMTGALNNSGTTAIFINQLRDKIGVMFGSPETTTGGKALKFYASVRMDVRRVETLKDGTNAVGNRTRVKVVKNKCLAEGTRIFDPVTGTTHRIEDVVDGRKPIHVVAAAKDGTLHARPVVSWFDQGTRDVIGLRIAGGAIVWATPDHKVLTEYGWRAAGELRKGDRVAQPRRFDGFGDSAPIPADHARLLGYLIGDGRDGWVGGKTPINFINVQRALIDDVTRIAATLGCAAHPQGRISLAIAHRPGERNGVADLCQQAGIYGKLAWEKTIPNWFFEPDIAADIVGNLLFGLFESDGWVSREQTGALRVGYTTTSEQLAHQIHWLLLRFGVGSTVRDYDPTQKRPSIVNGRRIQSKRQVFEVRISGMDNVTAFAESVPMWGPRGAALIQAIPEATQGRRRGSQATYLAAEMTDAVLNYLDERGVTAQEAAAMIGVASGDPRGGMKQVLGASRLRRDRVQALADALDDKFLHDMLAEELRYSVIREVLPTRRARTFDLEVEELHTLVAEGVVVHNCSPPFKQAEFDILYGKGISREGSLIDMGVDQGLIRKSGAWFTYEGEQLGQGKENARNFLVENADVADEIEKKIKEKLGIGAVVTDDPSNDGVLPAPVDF

[6] = target: T4, Neuropeptide Y receptor type 1 (Homo sapiens, UniProt P25929); format: functional;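 further: HEK293 cells with a CNG channel challenged with NPY then isoproterenol; potency as antagonist that reverses NPY suppression of cAMP signal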
T4 sequence (P25929 whole entry): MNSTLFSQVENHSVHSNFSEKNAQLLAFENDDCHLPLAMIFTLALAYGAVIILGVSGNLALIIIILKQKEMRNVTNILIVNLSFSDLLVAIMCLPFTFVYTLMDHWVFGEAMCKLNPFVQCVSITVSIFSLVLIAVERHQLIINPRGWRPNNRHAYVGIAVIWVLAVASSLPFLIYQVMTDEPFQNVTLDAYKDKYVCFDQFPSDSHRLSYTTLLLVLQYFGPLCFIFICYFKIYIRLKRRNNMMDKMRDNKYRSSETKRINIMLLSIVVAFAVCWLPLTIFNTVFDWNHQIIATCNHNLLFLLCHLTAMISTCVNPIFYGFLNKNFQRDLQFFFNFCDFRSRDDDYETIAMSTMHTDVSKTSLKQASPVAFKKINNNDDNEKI

[7] = target: T5, Neuropeptide Y receptor type 2 (Homo sapiens, UniProt P49146); format: functional, cell-based;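 further: HEK293 cells expressing the receptor and a CNG channel; stimulus was NPY near EC95 followed by isoproterenol to raise cAMP; antagonist potency measured as restoring cAMP signal that NPY suppresses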
T5 sequence (P49146 whole entry): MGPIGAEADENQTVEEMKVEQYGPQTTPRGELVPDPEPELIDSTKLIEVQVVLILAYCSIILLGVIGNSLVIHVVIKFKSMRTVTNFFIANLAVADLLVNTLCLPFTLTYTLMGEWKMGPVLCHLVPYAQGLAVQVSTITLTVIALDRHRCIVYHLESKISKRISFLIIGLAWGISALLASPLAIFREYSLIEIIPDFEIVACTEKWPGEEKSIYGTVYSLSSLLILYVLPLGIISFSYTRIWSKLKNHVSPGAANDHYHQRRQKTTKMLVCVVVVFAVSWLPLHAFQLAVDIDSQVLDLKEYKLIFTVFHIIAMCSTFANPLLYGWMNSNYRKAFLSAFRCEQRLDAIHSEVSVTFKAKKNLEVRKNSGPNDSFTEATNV

[8] = target: Ras and Rab interactor 1/Tyrosine-protein kinase ABL1 (Homo sapiens, UniProt P00519+Q13671); format: functional;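 further: biochemical TR-FRET dose-response test measuring inhibition of binding between Rin1 and Abl proteins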
Ras and Rab interactor 1/Tyrosine-protein kinase ABL1, sequence (P00519 whole entry): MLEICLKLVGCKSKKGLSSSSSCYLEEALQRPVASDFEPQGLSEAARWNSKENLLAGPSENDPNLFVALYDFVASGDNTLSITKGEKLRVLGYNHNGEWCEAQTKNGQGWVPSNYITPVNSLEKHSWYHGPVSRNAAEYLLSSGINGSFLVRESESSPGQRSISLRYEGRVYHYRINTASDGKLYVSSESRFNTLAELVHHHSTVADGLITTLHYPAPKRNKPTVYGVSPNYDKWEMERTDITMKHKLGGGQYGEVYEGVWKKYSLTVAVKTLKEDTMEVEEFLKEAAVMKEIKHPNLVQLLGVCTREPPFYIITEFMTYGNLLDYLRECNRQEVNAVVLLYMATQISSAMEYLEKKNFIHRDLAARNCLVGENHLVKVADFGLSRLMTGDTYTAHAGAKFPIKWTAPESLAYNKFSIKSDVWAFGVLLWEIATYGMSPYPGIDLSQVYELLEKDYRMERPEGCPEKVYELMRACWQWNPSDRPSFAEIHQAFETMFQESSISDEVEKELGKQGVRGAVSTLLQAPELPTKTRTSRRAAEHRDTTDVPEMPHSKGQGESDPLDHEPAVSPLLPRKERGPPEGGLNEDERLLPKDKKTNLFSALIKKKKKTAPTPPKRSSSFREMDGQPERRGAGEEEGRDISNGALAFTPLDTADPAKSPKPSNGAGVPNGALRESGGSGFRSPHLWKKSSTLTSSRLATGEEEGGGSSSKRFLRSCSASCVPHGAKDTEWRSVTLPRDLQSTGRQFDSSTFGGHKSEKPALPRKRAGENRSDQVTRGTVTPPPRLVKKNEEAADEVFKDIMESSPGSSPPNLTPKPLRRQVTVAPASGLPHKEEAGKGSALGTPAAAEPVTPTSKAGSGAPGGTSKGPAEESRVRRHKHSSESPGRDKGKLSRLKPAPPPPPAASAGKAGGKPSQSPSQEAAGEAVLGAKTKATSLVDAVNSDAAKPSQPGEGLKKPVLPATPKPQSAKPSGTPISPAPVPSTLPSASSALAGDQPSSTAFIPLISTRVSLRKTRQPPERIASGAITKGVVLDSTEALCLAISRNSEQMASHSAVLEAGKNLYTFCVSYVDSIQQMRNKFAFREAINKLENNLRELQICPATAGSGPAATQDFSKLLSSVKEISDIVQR
Ras and Rab interactor 1/Tyrosine-protein kinase ABL1, sequence (Q13671 whole entry): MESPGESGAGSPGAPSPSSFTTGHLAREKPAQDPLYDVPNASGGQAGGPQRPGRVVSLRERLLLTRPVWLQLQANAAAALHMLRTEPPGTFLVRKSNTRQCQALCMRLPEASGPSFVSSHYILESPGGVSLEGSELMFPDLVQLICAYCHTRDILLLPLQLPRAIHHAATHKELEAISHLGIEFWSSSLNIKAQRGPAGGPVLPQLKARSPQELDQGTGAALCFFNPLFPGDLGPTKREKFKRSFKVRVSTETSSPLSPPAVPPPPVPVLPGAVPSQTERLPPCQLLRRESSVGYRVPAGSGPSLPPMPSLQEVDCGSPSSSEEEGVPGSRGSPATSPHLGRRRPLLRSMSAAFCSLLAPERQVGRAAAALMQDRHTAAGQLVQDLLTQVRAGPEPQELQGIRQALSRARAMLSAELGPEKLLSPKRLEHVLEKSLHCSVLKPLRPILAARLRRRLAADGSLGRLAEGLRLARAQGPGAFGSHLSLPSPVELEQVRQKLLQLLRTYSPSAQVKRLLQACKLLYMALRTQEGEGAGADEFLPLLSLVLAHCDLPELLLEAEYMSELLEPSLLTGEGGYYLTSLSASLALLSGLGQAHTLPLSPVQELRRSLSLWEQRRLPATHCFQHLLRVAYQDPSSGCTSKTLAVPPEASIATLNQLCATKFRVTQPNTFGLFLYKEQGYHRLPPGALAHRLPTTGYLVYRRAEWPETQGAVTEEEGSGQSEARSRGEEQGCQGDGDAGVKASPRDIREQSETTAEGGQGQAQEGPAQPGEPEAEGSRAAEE

[9] = Luminescence Cell-Based Dose Confirmation HTS to Identify Inhibitors of Polyadenylation.; format: functional
[10] = target: Sphingosine 1-phosphate receptor 2 (Homo sapiens, UniProt O95136); test: Dose Response Cell Based Assay for Antagonists of the S1P2 Receptor. [Related pubchem assays: 856, 736 ]; format: functional
Sphingosine 1-phosphate receptor 2, sequence (O95136 whole entry): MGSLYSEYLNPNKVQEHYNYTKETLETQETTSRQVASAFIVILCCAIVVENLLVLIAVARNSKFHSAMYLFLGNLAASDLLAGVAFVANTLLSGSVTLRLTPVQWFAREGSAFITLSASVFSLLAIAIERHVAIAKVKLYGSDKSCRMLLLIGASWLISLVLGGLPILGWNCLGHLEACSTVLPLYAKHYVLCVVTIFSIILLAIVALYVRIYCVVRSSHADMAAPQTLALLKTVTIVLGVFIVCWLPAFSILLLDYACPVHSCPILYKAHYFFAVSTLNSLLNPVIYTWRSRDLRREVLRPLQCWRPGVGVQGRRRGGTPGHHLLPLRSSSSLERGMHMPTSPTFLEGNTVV

[11] = system: Streptococcus sp. 'group A'; test: Streptococcus pyogenes SK(-)GAS viability under kanamycin – luminescence, BacTiterGlo, confirmation, counter-screen for streptokinase expression inhibitor project, dose response (AID 1900); format: functional, organism-based
[12] = HPDE-C7 pancreatic duct cell viability loss – fluorescence, HTS (AID 430); format: functional, cell-based; conditions: Homo sapiens
[13] = viability loss of HPDE-C7K cells – cell-based, fluorescence, HTS, primary screen (AID 431); format: functional; conditions: Homo sapiens
[14] = target: Protein-tyrosine kinase 2-beta (Homo sapiens, UniProt Q14289);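 further: potency of inhibitors of PYK2 kinase phosphorylation of poly-GT substrate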
Protein-tyrosine kinase 2-beta, sequence (Q14289 whole entry): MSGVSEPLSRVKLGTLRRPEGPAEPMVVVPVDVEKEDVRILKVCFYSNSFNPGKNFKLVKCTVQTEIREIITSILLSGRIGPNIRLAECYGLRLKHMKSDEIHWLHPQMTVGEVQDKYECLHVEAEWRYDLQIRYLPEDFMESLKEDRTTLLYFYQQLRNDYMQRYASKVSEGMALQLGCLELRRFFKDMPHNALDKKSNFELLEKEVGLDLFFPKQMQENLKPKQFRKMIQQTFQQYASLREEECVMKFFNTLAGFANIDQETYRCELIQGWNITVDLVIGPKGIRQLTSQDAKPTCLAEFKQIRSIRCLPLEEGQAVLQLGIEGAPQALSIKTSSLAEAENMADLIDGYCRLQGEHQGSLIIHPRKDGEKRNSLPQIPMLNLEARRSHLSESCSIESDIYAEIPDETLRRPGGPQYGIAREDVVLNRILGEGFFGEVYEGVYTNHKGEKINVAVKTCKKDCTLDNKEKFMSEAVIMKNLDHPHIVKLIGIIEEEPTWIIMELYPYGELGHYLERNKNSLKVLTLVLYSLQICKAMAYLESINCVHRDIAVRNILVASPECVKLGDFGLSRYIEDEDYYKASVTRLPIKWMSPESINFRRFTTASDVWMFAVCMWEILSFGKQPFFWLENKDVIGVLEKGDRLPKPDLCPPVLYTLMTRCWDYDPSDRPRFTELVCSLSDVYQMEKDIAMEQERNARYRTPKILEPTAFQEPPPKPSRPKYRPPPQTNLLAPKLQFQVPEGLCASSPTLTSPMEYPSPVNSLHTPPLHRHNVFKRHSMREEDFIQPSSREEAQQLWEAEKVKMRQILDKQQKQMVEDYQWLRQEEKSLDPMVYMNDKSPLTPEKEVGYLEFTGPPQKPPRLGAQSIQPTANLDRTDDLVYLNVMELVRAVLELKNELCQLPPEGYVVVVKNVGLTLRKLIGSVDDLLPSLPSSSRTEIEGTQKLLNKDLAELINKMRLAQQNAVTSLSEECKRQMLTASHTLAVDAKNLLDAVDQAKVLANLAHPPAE

[15] = system: Streptococcus; test: GAS UMAA2166 growth inhibition – luminescence, BacTiterGlo, counter-screen for streptokinase expression inhibitor project, dose response (AID 1915); format: functional, organism-based;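 further: potency for reduction of bacterial viability or growth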
[16] = system: INS1; test: INS-1E survival protection against cytokine death – cell-based, luminescence, retest, dose response (AID 449756); format: functional; conditions: Rattus norvegicus;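 further: cell death triggered by IL-1 beta plus TNF-alpha plus IFN-gamma mixture; protective hits raise ATP signal compared with cytokine alone wells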
[17] = reduction of Shn3 3'UTR-driven luciferase in osteoblasts – cell-based, Clone20 osteoblasts, firefly luciferase, cherry-picked, dose response (AID 624132); format: functional;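 further: firefly luciferase luminescence from reporter carrying the Shn3 3'UTR in osteoblasts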
[18] = non-specific 3'UTR reporter inhibition in Clone20-Shn3RL – cell-based, Renilla luciferase, cherry-picked, counter-screen for Shn3 inhibitor project, dose response (AID 624133); format: functional
[19] = IC50 of Artemis nuclease activity blockers – biochemical, fluorescence intensity, dose response (AID 720701); format: functional;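 further: Artemis endonuclease enzyme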
[20] = A High Throughput Confirmatory Assay used to Identify Novel Compounds that Inhibit Mycobacterium Tuberculosis in the absence of Glycerol.; format: functional
[21] = M. tuberculosis growth inhibition, HTS (AID 449762); format: functional
[22] = target: T6, Probable nicotinate-nucleotide adenylyltransferase (Staphylococcus aureus (strain N315), UniProt P65502); format: functional, Staphylococcus aureus subsp. aureus N315;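 on IC50 Mean: confirmatory dose-response retesting of NadD inhibitor hits first found in an ultra-high-throughput screen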
T6 sequence (P65502 whole entry): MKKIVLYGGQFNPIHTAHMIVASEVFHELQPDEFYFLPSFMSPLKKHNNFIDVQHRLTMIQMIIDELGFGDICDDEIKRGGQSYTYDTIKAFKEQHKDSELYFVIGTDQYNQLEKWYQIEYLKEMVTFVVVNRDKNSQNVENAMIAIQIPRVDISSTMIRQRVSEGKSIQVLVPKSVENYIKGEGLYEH

[23] = target: T6, Probable nicotinate-nucleotide adenylyltransferase; format: functional, Staphylococcus aureus subsp. aureus N315; conditions: read-out: IC50_Mean
[24] = M. tuberculosis H37Rv growth inhibitors, H37Rv strain (AID 1626); format: functional
[25] = cells; format: functional
[26] = target: T7, Estrogen receptor (Homo sapiens, UniProt P03372); test: blockers of SRC-3 recruitment to ERα – biochemical, ELISA, streptavidin-HRP readout, orthogonal assay, confirmation (AID 1079)
T7 sequence (P03372 whole entry): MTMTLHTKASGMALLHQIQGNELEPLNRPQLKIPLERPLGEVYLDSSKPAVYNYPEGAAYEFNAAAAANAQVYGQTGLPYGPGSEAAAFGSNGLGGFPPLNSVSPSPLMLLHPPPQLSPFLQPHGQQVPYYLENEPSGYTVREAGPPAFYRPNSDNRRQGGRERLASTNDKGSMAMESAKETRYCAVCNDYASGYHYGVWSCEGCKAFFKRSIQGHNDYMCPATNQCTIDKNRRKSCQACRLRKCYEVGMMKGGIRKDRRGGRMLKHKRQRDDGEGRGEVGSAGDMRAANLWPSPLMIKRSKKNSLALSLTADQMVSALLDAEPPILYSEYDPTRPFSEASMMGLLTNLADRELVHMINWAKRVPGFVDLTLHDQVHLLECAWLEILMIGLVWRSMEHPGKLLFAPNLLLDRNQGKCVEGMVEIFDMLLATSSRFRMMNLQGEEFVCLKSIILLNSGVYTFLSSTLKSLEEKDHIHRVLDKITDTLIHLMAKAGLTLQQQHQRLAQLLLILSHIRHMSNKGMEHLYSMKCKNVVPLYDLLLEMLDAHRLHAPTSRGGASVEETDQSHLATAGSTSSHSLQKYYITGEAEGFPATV

SMILES: Cc1ccc(-c2cc(O)[nH]n2)c(C)c1
- IC50 [1]: < 1 µM (active)
- IC50 [2]: > 73.5 µM (not active)
- IC50 [3]: > 59.6 µM (not active)
- AC50 [4]: 2.53 µM (active)
- EC50 [5]: 0.502 µM (active)

SMILES: CCOC(=O)CCCCC(=O)c1[nH]c(O)nc1CSc1nnc2c3ccccc3n(C(C)C)c2n1
- IC50 [6]: 7.63 µM (active)
- IC50 [7]: 2.95 µM (active)
- IC50 [8]: 3.46 µM (active)

SMILES: CCCOP(=O)(c1ccc(N(C)C)cc1)C(Nc1ccccc1)c1ccc(C)cc1 (stereo unspecified)
- EC50 [9]: > 120 µM (not active)

SMILES: CCn1c(=O)c(C(=O)Nc2nc3ccccc3[nH]2)c(O)c2ccccc21
- IC50 [10]: > 50 µM (not active)
- EC50 [11]: 0.992 µM (active)
- EC50 [12]: 4.14 µM (active)
- EC50 [13]: 5.58 µM (active)
- IC50 [14]: > 69.5 µM (not active)
- EC50 [15]: 2.99 µM (active)
- AC50 [16]: 3.83 µM (active)
- AC50 [17]: 6.01 µM (active)
- AC50 [18]: 4.17 µM (active)
- IC50 [19]: 3.81 µM (active)

SMILES: CC(=O)c1cccc(NC(=O)C2C3C=CC(C3=C(c3ccccc3)c3ccccc3)C2C(=O)O)c1 (stereo unspecified)
- IC50 [20]: > 50 µM (active)
- IC50 [21]: > 100 µM (active)
- IC50 [22]: 8.12 µM (active)
- IC50 [23]: 44.5 µM (active)

SMILES: N=C1/C(=C/c2ccc(OC(=O)c3ccco3)cc2)C(=O)N=C2SC=CN12
- IC50 [24]: > 100 µM (active)
- IC50 [25]: 10.9 µM (active)

SMILES: O=C(CCCCCn1c(=S)[nH]c2ccccc2c1=O)N1CCN(c2cccc([N+](=O)[O-])c2)CC1
- IC50 [26]: 0.84 µM (not active)

Reference: ChEMBL document CHEMBL1201862, “PubChem BioAssay data set” (2004)
